Measured values from publication PMC10876879, “Sustained silencing peanut allergy by xanthopurpurin is associated with suppression of peripheral and bone marrow IgE-producing B cell” (Frontiers in Immunology, 2024).
Where “and” joins values, the source holds several entries; their conditions need not be identical. Identical values can stand only once.

What was measured:
U266 cells [1] = assay: Cell viability of U266 cells by trypan blue exclusion; assay type: cell-based, human; settings: all concentrations tested (2.5-40 µg/mL)
Experimental: Cell viability was evaluated using a trypan blue exclusion as previously described ([31]). Briefly, a 10µL of cells suspension from each culture was mixed with equal volume of trypan blue dye. The mixture was loaded into a hemocytometer and cells were counted under a microscope. The percentage of viable cells was calculated as follows: Viable cells (%) = (total number of viable cells)/(total number of cells) × 100.

PN-allergic C3H/HeJ mice = assay: Peanut-allergic mouse models (Model #1 systemic i.p. sensitization, early treatment; Model #2 oral sensitization, late treatment) with oral PN challenge; assay type: in vivo; settings: for Time after stopping treatment at which protection from anaphylaxis persisted: model #1
naïve C3H/HeJ mice = assay: Acute toxicity assay; assay type: in vivo
Experimental: For acute toxicity analysis, naïve C3H/HeJ mice were fed with 4 mg of XPP per mouse, which is10 times of the daily dose. […] In the sub-chronic toxicity assay, naïve C3H/HeJ mice were fed with 5 times their daily therapeutic dose (2 mg/day) for 14 days. Control group mice (sham) were fed with water. Blood samples were collected at the end of each experiment. Blood urea nitrogen (BUN) and alanine aminotransferase (ALT) measurements for the evaluation of kidney and liver functions respectively and complete blood count (CBC) testing were performed by ALX laboratories, NY.

IgE+ B cells = assay: Flow cytometry of IgE+ B cells in spleen and bone marrow of treated mice (Model #2); assay type: in vivo, C3H/HeJ mice; settings: model #2, vs sham
Experimental: Single cell suspensions of spleen, bone marrow from two femurs and heparinized peripheral blood were isolated in AIM-V medium. Erythrocytes were lysed with red cell lysing buffer (Sigma-Aldrich, St. Louis, MO). For staining, cells were suspended in ice cold staining buffer (PBS including 0.5 mM EDTA, 0.05 mM Sodium Azide, 0.5% BSA). Surface staining was performed by incubating cells with unlabeled anti-IgE (to block membrane IgE), BV605 anti-B220, BV711-anti-CD3, anti-CD16/32 (Fc-block), all from BD Biosciences, CA). Live-dead discriminating dye (Live-Dead Aqua, Invitrogen, CA) was included. After incubation, cells were washed and suspended in fixation/permeabilization buffer for 15 mins. Cells were washed with permeabilization buffer and incubated with Fitc-anti IgE in permeabilization buffer for 30 mins in the dark on ice. After washing, cells were treated with Cytofix buffer for 15 mins for post-fixation and then washed 3 times with staining buffer and finally resuspended in 200 µL staining buffer for cell acquisition on LSRII flow cytometer (BD Bioscience, San Jose, CA). Flow cytometry analysis was performed using Flow Jo 5.4 software (Tree Star Inc., Ashland, Oregon) as follows. […] From live cell gate, all IgE+ (Fitc-IgE) cells were gated and subsequently analyzed for IgE+ B cells (Fitc-IgE +; BV605-B220+ cells).

[2] = tested on: splenocytes (SPCs) and mesenteric lymph node (MLN) cells; assay: Cytokines in CPE-stimulated splenocyte and MLN cell cultures from treated mice (Model #2), ELISA; assay type: in vivo, C3H/HeJ mice; settings: model #2, CPE stimulation, vs sham
Experimental: Mice were sacrificed at the end of each experiment. The splenocytes (SPCs) and mesenteric lymph node (MLN) cells of each mouse was collected as previously described ([37]). Cells (4 x10^6/well/mL) were cultured in 24 well plates in the presence or absence of CPE (200 µg/mL). After 72 hrs of incubation at 37°C under 5% CO2, supernatants were collected. Cytokine levels were measured using ELISA kits in triplicate according to the manufacturer’s instructions (BD Biosciences, San Jose, CA and R&D systems, Minneapolis, MN).

IL-4 promoter = IL-4 promoter DNA methylation (CpG-393) in splenocytes of treated mice, bisulfite pyrosequencing; assay type: in vivo, C3H/HeJ mice; settings: model #2, vs sham
Excerpt: Genomic DNA was isolated from mouse splenocytes collected from orally sensitized mouse model#2 using Qiagen mini DNA/RNA extraction kit (Qiagen, Valencia, CA). Isolated DNA was bisulfite-modified using an Epitect plus DNA Bisulfite kit (Qiagen) following the manufacturer’s instructions. Bisulfite converted DNA was then amplified with the IL-4 primers listed below by PCR. The PCR products were subsequently purified and pyrosequenced using sequencing primers on a Pyromark Q24 system (Qiagen) as described previously ([38]). Primers for IL-4; Fwd: […]; Rev-Biotin-[…]. Sequencing (CpG -393) […].

U266 cells [3] = assay: RNA sequencing of XPP-treated U266 cells; assay type: cell-based, human; settings: XPP 10 μg/mL, 3 days
Experimental: U266 cells were treated with XPP at 10 μg/mL. After 3 days of treatment, cells were collected and total RNA was isolated using Qiagen RNeasy MiniKits following the manufacturer’s instructions. The purity of total RNA was analyzed and the RNA-Seq was performed with an Illumina HiSeq2500 instrument at the Genomics Core facility at Icahn School of Medicine at Mount Sinai. Counts were converted to Log2 counts per million and normalized. A log2 fold change was calculated and the gene list with values ≥ 2 or ≤ -2 were uploaded to DAVID bioinformatic system for functional analysis.

[4] = tested on: IgG production by ARH-77 cells; assay: IgG production by ARH-77 cells, IgG ELISA; assay type: cell-based, human; settings: XPP 2.5, 5, 10, 20, and 40 μg/mL
Experimental: ARH-77, a human IgG-producing myeloma cell line, was purchased from ATCC (American Type Culture Collection; Manassas, VA). The culture media contains RPMI 1640 medium supplemented, 10% FBS, 1 mM sodium pyruvate, 1×10^-5 M β-ME and 0.5% penicillin-streptomycin. Cells were cultured at 37°C under 5% CO2. […] After 3 days, supernatants were harvested and IgG levels were determined using an ELISA Kit (Mabtech Inc, OH).

ARH-77 cells = assay: Cell viability of ARH-77 cells by trypan blue exclusion; assay type: cell-based, human; settings: XPP 2.5-40 μg/mL
Experimental: Cell viability was evaluated using the trypan blue exclusion assay. Briefly, 10µL of ARH-77 cells at each testing condition was mixed with 10 µL of trypan blue dye. The mixture was then loaded into a hemocytometer and the viable cells were counted under a microscope. The percentage of viable cells was calculated as follows: Viable cells (%) = (total number of viable cells) / (total number of cells) × 100.

[5] = model #1, 7 weeks after stopping therapy
[6] = orally sensitized mouse model #2
[7] = 10x dose (4 mg/mouse) once, observed 14 days

**Q.** For `O=C1c2ccccc2C(=O)c2c(O)cc(O)cc21` [XPP, xanthopurpurin], which “Toxicity / cell viability of U266 cells (trypan blue)” value (U266 cells [1]) is on record?
**A.** Its value is “No toxicity was observed at any concentration tested”.

**Q.** And the “Body temperatures after PN challenge” value (PN-allergic C3H/HeJ mice; both models, 30 minutes after challenge, p < 0.001 vs. Sham)?
**A.** The value was “normal body temperatures”.

**Q.** And the “Reduction of PN-specific IgE levels at challenge vs. sham” value (PN-allergic C3H/HeJ mice; both models, oral XPP 400 µg/day)?
**A.** The value was > 80% and 75%.

**Q.** What about the “Plasma histamine levels after PN challenge” value (PN-allergic C3H/HeJ mice; both models, p < 0.001) of the same molecule?
**A.** The value was “essentially normal plasma histamine levels”.

**Q.** What about the “Symptom scores following PN challenge” value (PN-allergic C3H/HeJ mice; both models, score 0-5, p <0.001 vs. Sham) of the same molecule?
**A.** Its value is 0.

**Q.** What about the “Time after stopping treatment at which protection from anaphylaxis persisted” value (PN-allergic C3H/HeJ mice) of the same molecule?
**A.** The value was 5 weeks.

**Q.** What about the “Body temperatures, sustained effect” value (PN-allergic C3H/HeJ mice; [5]) of the same molecule?
**A.** Its value is “increased”.

**Q.** What about the “PN-specific IgE levels, sustained effect” value (PN-allergic C3H/HeJ mice; [5]) of the same molecule?
**A.** The value was “significantly reduced”.

**Q.** What about the “Symptom scores, sustained effect” value (PN-allergic C3H/HeJ mice; [5]) of the same molecule?
**A.** Its value is “significantly reduced”.

**Q.** What about the “Time after stopping treatment at which protection from anaphylaxis persisted” value (PN-allergic C3H/HeJ mice; listed as xanthopurpurin) of the same molecule?
**A.** The value was 7 weeks.

**Q.** And the “Fecal PN-specific IgA” value (PN-allergic C3H/HeJ mice; [6])?
**A.** Its value is “did not reduce”.

**Q.** And the “Serum PN-specific IgG1” value (PN-allergic C3H/HeJ mice; [6])?
**A.** Its value is “did not reduce”.

**Q.** What about the “Serum PN-specific IgG2a” value (PN-allergic C3H/HeJ mice; [6]) of the same molecule?
**A.** The value was “did not reduce”.

**Q.** What about the “Deaths, abnormal behavior or diarrhea” value (naïve C3H/HeJ mice; 10 times (4 mg/day) once, observed daily for 14 days) of the same molecule?
**A.** Its value is “No deaths and abnormal behavior or diarrhea were observed”.

**Q.** And the Morbidity (naïve C3H/HeJ mice; [7])?
**A.** The Morbidity was 0.00%.

**Q.** What about the Mortality (naïve C3H/HeJ mice; [7]) of the same molecule?
**A.** Its Mortality is 0.00%.

**Q.** And the “Percentage of IgE+ B cells (over all IgE+ cells) in bone marrow” value (IgE+ B cells; p < 0.001)?
**A.** Its value is “significantly reduced”.

**Q.** And the “Percentage of IgE+ B cells (over all IgE+ cells) in spleen” value (IgE+ B cells; p < 0.01)?
**A.** Its value is “significantly reduced”.

**Q.** And the “IL-4 level in MLN cultures” value ([2]; 72 hrs)?
**A.** The value was “significantly inhibited IL-4 level”.

**Q.** What about the “IL-4 level in splenocyte cultures” value ([2]; 72 hrs) of the same molecule?
**A.** The value was “significantly inhibited IL-4 level”.

**Q.** And the “IFN-γ production in MLN cultures” value [2]?
**A.** Its value is “no significant differences”.

**Q.** What about the “IFN-γ production in SPC cultures” value [2] of the same molecule?
**A.** The value was “no significant differences”.

**Q.** And the “IL-10 production in MLN cultures” value [2]?
**A.** The value was “no significant differences”.

**Q.** And the “IL-10 production in SPC cultures” value [2]?
**A.** The value was “no significant differences”.

**Q.** What about the “Percentages of CpG methylation for CpG-393 of IL-4 promoter” value (IL-4 promoter) of the same molecule?
**A.** Its value is “showed an increase”.

**Q.** What about the “Number of genes downregulated (RNA-Seq)” value (U266 cells [3]) of the same molecule?
**A.** The value was 5094 genes.

**Q.** And the “Number of genes upregulated (RNA-Seq)” value (U266 cells [3])?
**A.** The value was 4009 genes.

**Q.** What about the “IgG production by ARH-77 cells” value [4] of the same molecule?
**A.** The value was “didn’t show significant inhibition”.

**Q.** What about the “Toxicity / cell viability of ARH-77 cells” value (ARH-77 cells) of the same molecule?
**A.** Its value is “No toxicity was observed”.
